What was measured:
[1] = tested on: Escherichia coli IFO 3972; assay: Viable Count of Escherichia coli IFO 3972 in Erythritol Solution; format: cell-based
Experimental: (§1) Erythritol solutions of respective concentrations in the range of from 30 to 60% were prepared. To these were inoculated Staphylococcus aureus IFO 13276, Bacillus subtilis IFO 3134, and Escherichia coli IFO 3972 as bacteria, Candida albicans IFO 1549 and Saccharomyces cerevisiae ATCC 9763 as yeasts, Aspergillus niger IFO 6342, Aspergillus flavus IFO 6343, and Penicillium funiculosum IFO 6345 as fungi, respectively, in a population (concentration) of 10,000 cells/mL or more. After the inoculation, the solutions were stored at 30, 37, 45, 50, or 60° C., respectively, for 56 days and the number of viable cell was determined daily. The determination of the number of viable cell was performed by a method of coating 0.1 mL of appropriately diluted sample cultivation on an agar plate and cultivating and counting the number of viable cell (the number of colony) that grew after the cultivation.

[2] = tested on: Bacillus subtilis IFO 3134; assay: Viable Count of Bacillus subtilis IFO 3134 in Erythritol Solution; format: cell-based
Experimental: as §1

In the case of `OC[C@@H](O)[C@@H](O)CO` [Erythritol Solution, erythritol], the “The Number of Viable Cell” value ([1]; 30° C., 30% w/w, Day 0) is reported as 10000 or more cells/mL, the “The Number of Viable Cell” value ([1]; 30° C., 30% w/w, Day 3) is reported as 10000 or more cells/mL and the “The Number of Viable Cell” value ([1]; 30° C., 30% w/w, Day 7) is reported as 10000 or more cells/mL. For the same compound, the “The Number of Viable Cell” value ([1]; 30° C., 30% w/w, Day 14) was 7780 cells/mL, the “The Number of Viable Cell” value ([1]; 30° C., 30% w/w, Day 28) was 110 cells/mL and the “The Number of Viable Cell” value ([1]; 30° C., 30% w/w, Day 56) was 0 cells/mL. The “The Number of Viable Cell” value ([1]; 30° C., 40% w/w, Day 0) was 10000 or more cells/mL, the “The Number of Viable Cell” value ([1]; 30° C., 40% w/w, Day 3) was 10400 cells/mL and the “The Number of Viable Cell” value ([1]; 30° C., 40% w/w, Day 7) was 2820 cells/mL. For the same compound, the “The Number of Viable Cell” value ([1]; 30° C., 40% w/w, Day 14) was 420 cells/mL, the “The Number of Viable Cell” value ([1]; 30° C., 40% w/w, Day 28) was 0 cells/mL and the “The Number of Viable Cell” value ([1]; 30° C., 40% w/w, Day 56) was 0 cells/mL. For the same compound, the “The Number of Viable Cell” value ([1]; 37° C., 30% w/w, Day 0) was 10000 or more cells/mL, the “The Number of Viable Cell” value ([1]; 37° C., 30% w/w, Day 3) was 10000 or more cells/mL and the “The Number of Viable Cell” value ([1]; 37° C., 30% w/w, Day 7) was 8270 cells/mL. The “The Number of Viable Cell” value ([1]; 37° C., 30% w/w, Day 14) was 0 cells/mL, the “The Number of Viable Cell” value ([1]; 37° C., 30% w/w, Day 28) was 0 cells/mL and the “The Number of Viable Cell” value ([1]; 37° C., 30% w/w, Day 56) was 0 cells/mL. The “The Number of Viable Cell” value ([1]; 37° C., 40% w/w, Day 0) was 10000 or more cells/mL, the “The Number of Viable Cell” value ([1]; 37° C., 40% w/w, Day 3) was 11100 cells/mL and the “The Number of Viable Cell” value ([1]; 37° C., 40% w/w, Day 7) was 140 cells/mL. The “The Number of Viable Cell” value ([1]; 37° C., 40% w/w, Day 14) was 0 cells/mL, the “The Number of Viable Cell” value ([1]; 37° C., 40% w/w, Day 28) was 0 cells/mL and the “The Number of Viable Cell” value ([1]; 37° C., 40% w/w, Day 56) was 0 cells/mL. For the same compound, the “The Number of Viable Cell” value ([1]; 45° C., 30% w/w, Day 0) was 10000 or more cells/mL, the “The Number of Viable Cell” value ([1]; 45° C., 30% w/w, Day 3) was 450 cells/mL and the “The Number of Viable Cell” value ([1]; 45° C., 30% w/w, Day 7) was 0 cells/mL. The “The Number of Viable Cell” value ([1]; 45° C., 30% w/w, Day 14) was 0 cells/mL, the “The Number of Viable Cell” value ([1]; 45° C., 30% w/w, Day 28) was 0 cells/mL and the “The Number of Viable Cell” value ([1]; 45° C., 30% w/w, Day 56) was 0 cells/mL. The “The Number of Viable Cell” value ([1]; 45° C., 40% w/w, Day 0) was 10000 or more cells/mL, the “The Number of Viable Cell” value ([1]; 45° C., 40% w/w, Day 3) was 0 cells/mL and the “The Number of Viable Cell” value ([1]; 45° C., 40% w/w, Day 7) was 0 cells/mL. The “The Number of Viable Cell” value ([1]; 45° C., 40% w/w, Day 14) was 0 cells/mL, the “The Number of Viable Cell” value ([1]; 45° C., 40% w/w, Day 28) was 0 cells/mL and the “The Number of Viable Cell” value ([1]; 45° C., 40% w/w, Day 56) was 0 cells/mL. For the same compound, the “The Number of Viable Cell” value ([1]; 45° C., 50% w/w, Day 0) was 10000 or more cells/mL, the “The Number of Viable Cell” value ([1]; 45° C., 50% w/w, Day 3) was 0 cells/mL and the “The Number of Viable Cell” value ([1]; 45° C., 50% w/w, Day 7) was 0 cells/mL. For the same compound, the “The Number of Viable Cell” value ([1]; 45° C., 50% w/w, Day 14) was 0 cells/mL, the “The Number of Viable Cell” value ([1]; 45° C., 50% w/w, Day 28) was 0 cells/mL and the “The Number of Viable Cell” value ([1]; 45° C., 50% w/w, Day 56) was 0 cells/mL. The “The Number of Viable Cell” value ([1]; 50° C., 30% w/w, Day 0) was 10000 or more cells/mL, the “The Number of Viable Cell” value ([1]; 50° C., 30% w/w, Day 3) was 0 cells/mL and the “The Number of Viable Cell” value ([1]; 50° C., 30% w/w, Day 7) was 0 cells/mL. The “The Number of Viable Cell” value ([1]; 50° C., 30% w/w, Day 14) was 0 cells/mL, the “The Number of Viable Cell” value ([1]; 50° C., 30% w/w, Day 28) was 0 cells/mL and the “The Number of Viable Cell” value ([1]; 50° C., 30% w/w, Day 56) was 0 cells/mL. The “The Number of Viable Cell” value ([1]; 50° C., 40% w/w, Day 0) was 10000 or more cells/mL, the “The Number of Viable Cell” value ([1]; 50° C., 40% w/w, Day 3) was 0 cells/mL and the “The Number of Viable Cell” value ([1]; 50° C., 40% w/w, Day 7) was 0 cells/mL. For the same compound, the “The Number of Viable Cell” value ([1]; 50° C., 40% w/w, Day 14) was 0 cells/mL, the “The Number of Viable Cell” value ([1]; 50° C., 40% w/w, Day 28) was 0 cells/mL and the “The Number of Viable Cell” value ([1]; 50° C., 40% w/w, Day 56) was 0 cells/mL. For the same compound, the “The Number of Viable Cell” value ([1]; 50° C., 50% w/w, Day 0) was 10000 or more cells/mL, the “The Number of Viable Cell” value ([1]; 50° C., 50% w/w, Day 3) was 0 cells/mL and the “The Number of Viable Cell” value ([1]; 50° C., 50% w/w, Day 7) was 0 cells/mL. For the same compound, the “The Number of Viable Cell” value ([1]; 50° C., 50% w/w, Day 14) was 0 cells/mL, the “The Number of Viable Cell” value ([1]; 50° C., 50% w/w, Day 28) was 0 cells/mL and the “The Number of Viable Cell” value ([1]; 50° C., 50% w/w, Day 56) was 0 cells/mL. The “growth of the microbes” value ([1]; temperature of 50° C. or more) was “prevented from growing”, the “time after which microbes died” value ([1]; temperature of 50° C. or more) was 3 days and the “The Number of Viable Cell” value ([2]; 30° C., 30% w/w, Day 0) was 10000 or more cells/mL. For the same compound, the “The Number of Viable Cell” value ([2]; 30° C., 30% w/w, Day 3) was 2980 cells/mL, the “The Number of Viable Cell” value ([2]; 30° C., 30% w/w, Day 7) was 440 cells/mL and the “The Number of Viable Cell” value ([2]; 30° C., 30% w/w, Day 14) was 110 cells/mL. The “The Number of Viable Cell” value ([2]; 30° C., 30% w/w, Day 28) was 750 cells/mL, the “The Number of Viable Cell” value ([2]; 30° C., 30% w/w, Day 56) was 0 cells/mL and the “The Number of Viable Cell” value ([2]; 30° C., 40% w/w, Day 0) was 10000 or more cells/mL. For the same compound, the “The Number of Viable Cell” value ([2]; 30° C., 40% w/w, Day 3) was 300 cells/mL, the “The Number of Viable Cell” value ([2]; 30° C., 40% w/w, Day 7) was 0 cells/mL and the “The Number of Viable Cell” value ([2]; 30° C., 40% w/w, Day 14) was 20 cells/mL. The “The Number of Viable Cell” value ([2]; 30° C., 40% w/w, Day 28) was 0 cells/mL, the “The Number of Viable Cell” value ([2]; 30° C., 40% w/w, Day 56) was 0 cells/mL and the “The Number of Viable Cell” value ([2]; 37° C., 30% w/w, Day 0) was 10000 or more cells/mL. The “The Number of Viable Cell” value ([2]; 37° C., 30% w/w, Day 3) was 170 cells/mL and the “The Number of Viable Cell” value ([2]; 37° C., 30% w/w, Day 7) was 11500 cells/mL.
